Results on two substances are retold here after US20060088843A1 (priority 2004, published 2006).

Series [1] is described as follows: Antiviral activity in similar assays (not specified).
For series [2], the system named is herpesvirus. To be noted: cited from earlier work.
Series [3] relates to mice. The experiment in a line: Toxicity assay in mice.
Series [4] deals with Semliki Forest virus. Conditions: cited from earlier work.
A short description of series [5]: pI and pH of protein solutions. It is filed as physicochemical.
In series [6] the test system is NAChR. It is filed as binding.

For the substance “alpha-cobratoxin [native alpha-cobratoxin]”, in series [1], the antiviral activity result was “does not demonstrate antiviral activity”. Also, in series [2], the “antiviral activity against herpes” value was “does not have any antiviral activity”. This substance gave an LD50 in mice in series [3] (injected subcutaneously or intra-peritoneally) of 1.2 µg. For the same substance, the time to death in series [3] (injection of 1.5 mcg, 25 g mouse) is no more than 25 min. Further, the “antiviral activity against Semliki Forest virus” value in series [4] is “does not have any antiviral activity”. In series [5], the pH of solution was 10.4 and the pI stood at 9.6.

With autoclaved alpha-cobratoxin, the “antiviral activity against herpes” value in series [2] was “no antiviral activity”. In addition, the “antiviral activity against Semliki Forest virus” value in series [4] is listed as “no antiviral activity”. Also, in series [6], the “binding to native receptor” value was “still capable of binding to its native receptor”.
